Assay results as given in patent publication US11452709B2, “Compositions and methods for preventing and treating radiation-induced bystander effects caused by radiation or radiotherapy” (The Regents of the University of Colorado, priority 2017, dated 2022).
Changes are numbered by the printed parent chain. Names and notes keep the numbering of the source. Like-named read-outs stand apart in the source and are kept apart here.

Legend:
CTSB protease = target: T1, CTSB protease (Homo sapiens, UniProt P07858); assay: CTSB protease activity inhibition in vitro (z-Arg-Arg-AMC substrate); assay type: biochemical; conditions: for Inhibition rate (%) of the CTSB protease activity / inhibition at 1000 µM: 1 mM of each compound; for inhibition at 1000 µM: read-out: Inhibition rate (%) of the CTSB protease activity
T1 construct: purchased Sino Biological Inc. 10483-H08H-10

[1] = tested on: Phsp-4::gfp stress-response reporter; assay: Phsp-4::gfp stress response assay in unexposed posterior region after localized UV irradiation (LUI); assay type: in vivo, C. elegans; conditions: zcls4 L1 larvae treated with 1 mM compound for 48 h (FIG. 17)
[2] = target: T2, C. elegans CPR-4 protease (Caenorhabditis elegans, UniProt P43508); assay: CPR-4 protease activity inhibition in vitro (z-Arg-Arg-AMC substrate); assay type: biochemical; conditions: 1 mM of each compound; read-out: Inhibition rate(%) of the C. elegans CPR-4 protease activity
T2 construct: a cpr-4 cDNA fragment encoding residues 16-336 was PCR amplified from the full-length cpr-4 cDNA clone; GST (N, cleaved yes); made in house; host or cells: Escherichia coli BL21(DE3)
T2 sequence (P43508 81-335): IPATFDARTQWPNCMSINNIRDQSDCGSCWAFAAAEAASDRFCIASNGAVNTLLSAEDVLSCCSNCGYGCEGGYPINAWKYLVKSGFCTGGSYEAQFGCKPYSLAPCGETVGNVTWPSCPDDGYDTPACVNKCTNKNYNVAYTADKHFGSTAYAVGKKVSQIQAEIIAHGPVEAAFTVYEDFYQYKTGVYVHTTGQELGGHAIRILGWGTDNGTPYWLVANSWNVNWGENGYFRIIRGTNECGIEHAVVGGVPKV

[3] = tested on: germ cell corpses in ced-1(e1735) animals; assay: Germ cell corpse assay with recombinant proteins in liquid culture; assay type: in vivo, C. elegans; conditions: for Germ cell corpses in ced-1(e1735) animals: 2.8 μM tCPR-4 proteins or 0.27 μM rhCTSB, L4 larvae, 48 hours
Description: Growing C. elegans animals in 96-well plates. HB101 bacteria were mixed with 100 μL conditioned medium (0.1 μg/μL) or 100 μL S-Medium containing 2.8 μM of recombinant tCPR-4 proteins (wild-type or mutant) or 0.27 μM recombinant human cathepsin B in a 96-well plate. Approximately 60 L4 larvae were transferred into each well of the plate. After being cultured in liquid media for 48 hours, these animals were scored for the numbers of germ cell corpses and mitotic nuclei. Quantification of germ cell corpses. L4 animals were cultured in liquid media in a 96-well plate as described above. After 48 hours, they were transferred to NGM plates and allowed to recover for 1 hour at 20° C. The animals were then anesthetized by 20 mM NaN3, mounted onto 2% agar pad, and scored under Nomarski optics. For transgenic animals expressing CPR-4 in the pharynx, L4 animals were grown on NGM plates for 24 hours at 20° C. before they were scored for germ cell corpses. Only the posterior arms of intact gonads were scored. Blind tests were carried out in all germ cell corpse quantification experiments.

N2 animals = assay: Embryonic lethality assay in liquid media with purified proteins; assay type: in vivo, C. elegans; conditions: 2.8 μM tCPR-4 proteins or 0.27 μM rhCTSB, 48 hours
Description: Embryonic lethality and larval arrest assays. For embryonic lethality assays caused by direct irradiation, after irradiated with 100 J/m^2 UV or 500 Gy gamma ray, gravid adults were placed on NGM plates to lay eggs for 4 hours at 25° C. and then removed from the plates. For embryonic lethality assays in liquid media, L4 larvae were cultured in conditioned medium or S-Medium containing the purified proteins at 20° C. for 48 hours, transferred to fresh NGM plates from the liquid media, and allowed to lay eggs for 4 hours at 25° C., before the adult animals were removed. For embryonic lethality assays in transgenic animals expressing CPR-4 in the pharynx, transgenic gravid adults at 24 hours post L4 were placed on NGM plates to lay eggs for 4 hours at 25° C. and then removed from the plates.

[4] = tested on: germline mitotic zone nuclei; assay: Germ cell proliferation assay (mitotic nuclei); assay type: in vivo, C. elegans; conditions: 2.8 μM tCPR-4, 48 hours
Description: Growing C. elegans animals in 96-well plates. HB101 bacteria were mixed with 100 μL conditioned medium (0.1 μg/μL) or 100 μL S-Medium containing 2.8 μM of recombinant tCPR-4 proteins (wild-type or mutant) or 0.27 μM recombinant human cathepsin B in a 96-well plate. Approximately 60 L4 larvae were transferred into each well of the plate. After being cultured in liquid media for 48 hours, these animals were scored for the numbers of germ cell corpses and mitotic nuclei. Quantification of mitotic nuclei. L4 animals treated with 2.8 μM of purified tCPR-4 proteins in liquid culture for 48 hours were transferred to NGM plates and allowed to recover for 1 hour at 20° C. They were then dissected to expose their gonads following the protocol described previously. Dissected gonads were fixed and stained with DAPI. The number of germ nuclei and the number of metaphase nuclei in the mitotic zone of each gonad were scored using a Zeiss Nomarski microscope with a DAPI filter.

[5] = Protease activity of recombinant proteins in vitro; assay type: biochemical; conditions: 2.8 μM tCPR-4 proteins, 0.27 μM rhCTSB; z-Arg-Arg-AMC
Description: Measurement of protease activity in vitro. The CPR-4 enzymatic assays were performed following the method described previously with some modifications. The cathepsin B-specific fluorogenic substrate, Z-Arg-Arg-7-amido-4-methylcoumarin hydrochloride (z-Arg-Arg-AMC; Peptanova, catalog number 88937-61-5), was dissolved in 2×reaction buffer, containing 25 mM Tris-HCl (pH 8.0), 100 mM NaCl, 10% (v/v) Glycerol, 0.8 mM Sodium Acetate (pH6.0), and 8 mM EDTA. For the assays, 10 μL of proteins (100 ng/μL) or 10 μL of conditioned medium (100 ng/μL) were incubated with 10 μL of 20 μM z-Arg-Arg-AMC at 25° C. for 10 minutes before measuring the […]. Enzymatic activities were determined as the mean velocities at 25° C. in a dual luminescence fluorometer EnVision (Perkin-Elmer) at an excitation wavelength of 380 nm and an emission wavelength of 460 nm, and expressed as relative intensity in kilo relative fluorescence unit (kRFU). Recombinant human cathepsin B (rhCTSB; Sino Biological Inc., catalog number 10483-H08H-10) was dissolved in a buffer recommended by the manufacturer [25 mM Tris-HCl (pH 8.0), 100 mM NaCl, 10% (v/v) glycerol, 5 mM DTT, and 0.1% Triton-X]. The buffer control unique to the CPR-4 proteins or the rhCTSB protein, or the sham-irradiated conditioned medium, was also measured using the same procedures. S-Medium was used in each experiment as the background control.

[6] = read-out: IC50 in inhibiting CTSB
[7] = read-out: IC50 in inhibiting the CTSB protease activity

Molecule: CCCNC(=O)[C@H]1O[C@@H]1C(=O)N[C@H](C(=O)N1CCC[C@H]1C(=O)OC)[C@@H](C)CC [CA074Me, CA074 methyl ester, reference compound]
- Inhibition rate (%) of the CTSB protease activity (CTSB protease): best inhibitory effects
- inhibition at 1000 µM (CTSB protease): 88.1%
- IC50 (CTSB protease; [6]): ≤ 20 nM
- IC50 (CTSB protease; [7]): < 10 nM
- Bystander Phsp-4::gfp response in posterior unexposed regions after LUI at the head [1]: abolished the bystander Phsp-4::gfp response

Molecule: O=C(OC[C@H]1O[C@@H](OC(=O)c2cc(O)c(O)c(OC(=O)c3cc(O)c(O)c(O)c3)c2)[C@H](OC(=O)c2cc(O)c(O)c(OC(=O)c3cc(O)c(O)c(O)c3)c2)[C@@H](OC(=O)c2cc(O)c(O)c(OC(=O)c3cc(O)c(O)c(O)c3)c2)[C@@H]1OC(=O)c1cc(O)c(O)c(OC(=O)c2cc(O)c(O)c(O)c2)c1)c1cc(O)c(O)c(OC(=O)c2cc(O)c(O)c(O)c2)c1 [Tannic acid]
- inhibition at 1000 µM (CTSB protease): 69.3%

Molecule: O=c1cc(-c2ccc(O)cc2)oc2cc(O)cc(O)c12 [Apigenin, 5,7-Dihydroxy-2-(4-hydroxyphenyl)-4H-1-benzopyran-4-one]
- Inhibition rate (%) of the CTSB protease activity (CTSB protease): 70.93%
- inhibition at 1000 µM (CTSB protease): 65 to 85%

Molecule: O=c1c(O)c(-c2ccc(O)c(O)c2)oc2cc(O)cc(O)c12 [Quercetin, 2-(3,4-dihydroxyphenyl)-3,5,7-trihydroxy-4H-chromen-4-one]
- Inhibition of the activity of CTSB (in words) (CTSB protease): inhibit the activity of CTSB
- Inhibition rate (%) of the CTSB protease activity (CTSB protease): 82.42%
- inhibition at 1000 µM (CTSB protease): 65 to 85%
- IC50 (CTSB protease; [7]): 1870 nM
- inhibition at 1000 µM [2]: 80.7%

Molecule: O=c1cc(-c2ccccc2)oc2cc(O)c(O)c(O)c12 [Baicalein, 5,6,7-Trihydroxy-2-phenyl-chromen-4-one]
- inhibition at 1000 µM (CTSB protease): 65 to 85%
- IC50 (CTSB protease; [7]): 870 nM
- inhibition at 1000 µM [2]: 41.5%

Molecule: NH2-Arg-Leu-Ala-COOH—Se
- Inhibition rate (%) of the CTSB protease activity (CTSB protease): 86.93%

Molecule: CC(C)C[C@H](NC(=O)[C@@H]1O[C@H]1C(=O)O)C(=O)NCCCCNC(=N)N [E64, N—[N-(L-3-Trans-carboxirane-2-carbonyl)-L-leucyl]-agmatine, reference compound]
- inhibition at 1000 µM (CTSB protease): 92.1%
- IC50 (CTSB protease; [6]): ≤ 20 nM
- IC50 (CTSB protease; [7]): 20 nM
- inhibition at 1000 µM [2]: 89.6%

Molecule: Nc1nc2ncc(CNc3ccc(C(=O)N[C@@H](CCC(=O)O)C(=O)O)cc3)nc2c(=O)[nH]1 [Folic acid]
- Enhancement of the activity of the CTSB protease (CTSB protease): more than 4 folds
- EC50 (CTSB protease; read-out: EC50 (activation of the CTSB protease)): 1260 nM

Molecule: O=c1c(O[C@@H]2O[C@H](CO)[C@@H](O)[C@H](O)[C@H]2O)c(-c2ccc(O)c(O)c2)oc2cc(O)cc(O)c12 [Isoquercitrin, 2-(3,4-Dihydroxyphenyl)-5,7-dihydroxy-3-[(2S,3R,4S,5S,6R)-3,4,5-trihydroxy-6-(hydroxymethyl)oxan-2-yl]oxychromen-4-one]
- Inhibition of the activity of CTSB (in words) (CTSB protease): inhibit the activity of CTSB
- Inhibition rate (%) of the CTSB protease activity (CTSB protease): 68.98%
- inhibition at 1000 µM (CTSB protease): 65 to 85%

Molecule: CCCNC(=O)[C@H]1O[C@@H]1C(=O)N[C@H](C(=O)N1CCC[C@H]1C(=O)O)[C@@H](C)CC (relative stereo) [CA074, N-(1-3-trans-propylcarbamoyloxirane-2-carbonyl)-1-isoleucyl-1-proline, reference compound]
- Inhibition rate (%) of the CTSB protease activity (CTSB protease): best inhibitory effects
- inhibition at 1000 µM (CTSB protease): 91.8%
- Bystander Phsp-4::gfp response in posterior unexposed regions after LUI at the head [1]: abolished the bystander Phsp-4::gfp response

B1: tCPR-4: recombinant truncated CPR-4 lacking its signal peptide (residues 1-15) (protein, UniProt P43508 81-335, looked up)
Cathepsin B-like cysteine …: T2 sequence (P43508 81-335)
- Germ cell death in ced-1(e1735); daf2(e1370) mutant ([3]; 2.8 μM tCPR-4, 48 hours): did not further reduce germ cell death
- Germ cell death in ced-1(e1735); pdk-1(sa680) animals ([3]; 2.8 μM tCPR-4, 48 hours): did not reduce germ cell death
- Germ cell corpses in ced-1(e1735) animals [3]: reduced germ cell corpses
- Embryonic lethality of treated N2 animals (N2 animals): increased embryonic lethality
- Germ cell nuclei and metaphase nuclei in the mitotic zone of N2 animals [4]: more germ cell nuclei and more metaphase nuclei in the mitotic zone

B2: tCPR-4(N301A): tCPR-4 with mutation N301A changing a non-catalytic residue (protein, UniProt P43508 81-335, looked up, variant N301A)
Cathepsin B-like cysteine …: T2 sequence (P43508 81-335) with N221A
- Germ cell corpses in ced-1(e1735) animals [3]: reduced germ cell corpses
- Embryonic lethality of treated N2 animals (N2 animals): increased embryonic lethality
- Protease activity of recombinant protein [5]: did not affect tCPR-4 protease activity

B3: tCPR-4(H281A) (protein, UniProt P43508 81-335, looked up, variant H281A)
Cathepsin B-like cysteine …: T2 sequence (P43508 81-335) with H201A
- Germ cell corpses in ced-1(e1735) animals [3]: failed to do so
- Embryonic lethality of treated N2 animals (N2 animals): failed to do so
- Protease activity of recombinant protein [5]: abolished the protease activity

B4: tCPR-4(C109A): tCPR-4 with mutation of the conserved catalytic Cysteine residue (protein, UniProt P43508 81-335, looked up, variant C109A)
Cathepsin B-like cysteine …: T2 sequence (P43508 81-335) with C29A
- Germ cell corpses in ced-1(e1735) animals [3]: failed to do so
- Embryonic lethality of treated N2 animals (N2 animals): failed to do so
- Protease activity of recombinant protein [5]: abolished the protease activity
